Like-named read-outs stand apart in the source and are kept apart here.
What was measured:
[1] = cited from earlier work
[2] = Aqueous blending of bulk powdered CFI and active drug, visual and microscopic check; assay type: physicochemical
[3] = oral; cited from earlier work

In the case of `CC(=O)CCc1ccc2c(c1)OCO2` [4-(1,3-benzodioxol-5-yl)butan-2-one], the “Log P” value [1] is listed as “Log P: 1.15”.

For `COc1ccccc1OCCNCC(O)COc1cccc2[nH]c3ccccc3c12` (stereo not drawn) [CAR, Carvedilol], the “aspect of composition API:PES 1:1 in ethanol/purified water” value (“aspect … in ethanol/purified water” for short) ([2]; 30% ethanol) was “stable oil droplets” and the “ethanol content of hydro-alcoholic mixture needed to solubilize the drug” value (“ethanol content” for short) (drug 1% w/w) was “at least 80 % by weight of the total mixture”.

For `Clc1cccc(Cl)c1N=C1NCCN1` [CLO, clonidine], the “aspect … in ethanol/purified water” value ([2]; 5% ethanol) was “stable oil droplets”, the “aspect … in ethanol/purified water” value ([2]; 10% ethanol) was “stable oil droplets” and the “ethanol content” value (drug 0.5% w/w) was “at least 50 % by weight of the total mixture”.

In the case of `CN1C2CCCC1CC(NC(=O)c1nn(C)c3ccccc13)C2` (stereo not drawn) [GRA, Granisetron], the “aspect … in ethanol/purified water” value ([2]; 30% ethanol) was “stable oil droplets” and the “ethanol content” value (drug 0.5% w/w) was “at least 40 % by weight of the total mixture”.

With `CC(C)Cc1ccc(C(C)C(=O)O)cc1` (stereo not drawn) [Ibuprofen, ibuprofen] the “ethanol content” value (drug 1% w/w) was “at least 50 % by weight of the total mixture”.

In the case of `c1ccc2c(c1)CC1COCOC21` (stereo not drawn) [Indeno-m-dioxin tetrahydro], the “Log P” value [1] is given as “Log P: 1.33”.

For `CCN(CC)CC(=O)Nc1c(C)cccc1C` [Lidocaine, lidocaine], the “storage period over which aspect (transparent droplets, no crystallization) was maintained” value ([2]; lidocaine 2.50% w/w and PES 2.50% w/w in water, ambient temperature in the dark) was over 13 month.

In the case of `CCN(CC)CC#CCOC(=O)C(O)(c1ccccc1)C1CCCCC1` (stereo not drawn) [OXY, oxybutynin], the “aspect … in ethanol/purified water” value ([2]; 30% ethanol) was “small transparent droplets easily re-suspended”.

For `CC(C)(C)C1CCCCC1O` (stereo not drawn) [Ortho tertiary butyl cyclohexanol], the “Log P” value [1] is given as “Log P: 3.3-3.4”.

In the case of `O=C(OCCc1ccccc1)c1ccccc1O` [Phenyl ethyl salicylate], the “Log P” value [1] is listed as “Log P: 4.31”.

With `CCCN(CCC)CCc1cccc2c1CC(=O)N2` [ROP, Ropinirole] the “aspect … in ethanol/purified water” value ([2]; 15% ethanol) was “stable oil droplets” and the “ethanol content” value (drug 1% w/w) was “at least 40 % by weight of the total mixture”.

For `C[C@]12CC[C@H]3[C@@H](CCC4=CC(=O)CC[C@@]43C)[C@@H]1CC[C@@H]2O` [TES, Testosterone], the “aspect … in ethanol/purified water” value [2] was “stable oil droplets”.

For `NCCCC(O)(P(=O)(O)O)P(=O)(O)O` [sodium alendronate], the “fraction of the drug absorbed when administered orally” value [3] is listed as “about 0.6%”.
